Results: US10705094B2, “TNF receptor signaling modulator assay” (UCB Biopharma SRL, priority 2015, dated 2020)

Columns and labels:
TNFα [1] = molecular target: T1, TNFα (Homo sapiens, UniProt P01375); assay: Surface plasmon resonance kinetics of compound binding to immobilised TNFα (Biacore T100/T200)
Protocol: Surface plasmon resonance was used to measure the association rate, the dissociation rate and the affinity of the compounds of formulae (1) and (2) for TNFα (FIGS. 13A and B). For the purpose of this study a Biacore T100/T200 was used.
TNFα was immobilised at pH5 to a level of 5-8 KRU onto a CMS sensor in HBS-P buffer (10 mM HEPES pH 7.4, 0.15 M NaCl, 0.005% Surfactant P20, BIAcore, GE Healthcare). The TNFα was then equilibrated in HBS-P with 5% DMSO for at least 5 hours. The samples were diluted from 10 mM stocks into DMSO matched buffer and left to solubilise for at least 5 hours. The flow rate was 30 μL/min.
This assay was performed by adding 4 or 5 concentrations of compound starting from a highest concentration of 25 μM for compound of formula (1) and 1 μM for compound of formula (2) and then serially diluting this sample. Background subtraction binding curves were analysed using the BIAevaluation software following standard procedures. Binding, affinity and kinetic parameters were determined using Biacore software. The kinetic data were fitted using the levenberg marquardt algorithm.

TNFα [2] = molecular target: T1, TNFα; assay: L929 murine fibrosarcoma cell-killing (neutralisation) assay; format: cell-based, mouse; design: host or cells: added to L929 murine fibrosarcoma cells (ECACC, 85011425); conditions: L929 cells; read-out: IC50 (inhibition of cell killing activity of human TNFα)
Protocol: The L929 neutralisation assays were carried out using the protocol disclosed in Baarsch M J J et al (Immunol Methods 1991; 140: 15-22) and Galloway C J et al J (Immunol Methods 1991; 140: 37-43).
Briefly, L929 cells (ECACC, 85011425) were cultured in culture medium consisting of RPMI 1640 (Gibco) containing 10% FCS (PAA), 2 mM glutamine (Gibco), 50 U/ml penicillin (Gibco) and 50 μg/ml streptomycin (Gibco). When they were subcultured, the cells were washed three times with 10 mL Dulbecco's phosphate-buffered saline without calcium and magnesium (Gibco) and 3 ml of trypsin-EDTA (Gibco) was then added for 2 minutes to remove the cells from the flask. Culture medium was added to neutralise the trypsin and the cells pipetted up and down to remove any clumps.
The L929 cells were split 1/2 or 1/3 the day before use and cultured for a further 24 hours. The flasks were then trypsinised as above and 2×10^4 cells in 100 μl were added per well of a 96 well flat-bottomed plate (Becton Dickinson). The plates were cultured for 24 hours before the assay was set up.
Serial dilutions were made from DMSO stocks of the compounds.
The assay medium was the same as culture medium but also contained 1 μg/ml actinomycin D (Sigma). The medium was flicked off the plates and the assay samples plus TNFα, standards and controls were added in 100 μl volumes in duplicate. Plates were incubated for a further 16 hours and then 10 μl per well of a 5 mg/ml methylthiazoletetrazolium (MTT; Sigma) solution in culture medium was added for a further 4 hours. The reaction was stopped by the addition of 100 μl of solubilisation buffer containing 20% sodium dodecyl sulphate (SDS, BDH) dissolved in 50% dimethyl formamide (DMF; BDH) and 50% deionised water.
After overnight incubation at 37° C. to allow the dye to dissolve, the plates were read on a Multiskan EX plate reader (Labsystem) at 570 nm with subtraction at 630 nm. Data were analysed using the Genesis software package.

TNFα [3] = molecular target: T1, TNFα; assay: Fluorescence polarization assay, competition with the compound of formula (4) for TNFα; conditions: TNFα 50 nM, compound of formula (4) 10 nM, 5% DMSO; read-out: IC50 (inhibition of binding of the compound of formula (4) to TNFα)
Protocol: The final concentrations of TNFα and the compound of formula (4) were 50 nM and 10 nM respectively in a total assay volume of 25 μl. Plates were read on an Analyst HT reader. An IC50 was calculated using xlfit (4 parameter logistic model) in Activity Base.
C87 was preincubated with TNFα for 1 hour prior to assay against the fluorescent compound (probe). Competition with the fluorescent compound either directly (binding at the same site) or indirectly (disrupting TNF) is detected by a reduction in FP.

[4] = molecular target: T2, TNFα binding to the TNF receptor (TNFR-ECD) (Homo sapiens, UniProt P01375); assay: Meso Scale Discovery (MSD) assay of TNFα binding to plate-coated TNFR-ECD; conditions: single point assay, 100 μM compound, 5% final v/v DMSO
T2 construct: purchased R&D Systems
Protocol: 384 well uncoated plates (standard binding) Meso Scale Discovery plates (MSD) were coated overnight with the extracellular domain of TNFR (TNFR-ECD) (10 μl, 1 ug/mL in PBS). To ensure even distribution plates were centrifuged at 1000 rpm for 2 minutes. The plates were then sealed and stored at +4° C. overnight.
The wells of the plates were then washed three times in 50 μl phosphate buffered saline pH 6.5 (PB) with 0.05% Tween 20 (wash buffer), and then blocked with 50 μl 2% BSA. The plates were then incubated at room temperature on a shaker (600 rpm) for 2 hours. After this incubation plates were washed (3×50 μl wash buffer per well).
During the blocking incubation, compounds of formulae (1) and (2) were pre-incubated with TNF (R&D Systems) prior to addition to the pre-blocked and washed MSD plates. For a single point assay as shown in FIG. 3A the compounds were assayed at a final concentration of 100 μM (5% final v/v DMSO).
Pre-diluted compounds of formulae (1) and (2) were added at a ratio of 1:1 to 4 ng/mL TNF (final concentration 2 ng/ml), and then incubated at room temperature on a shaker 600 rpm for 1 hour.
10 μl of pre-incubated mixtures of compound of formulae (1) or (2) with TNFα were added to the prepared MSD plate and incubated at room temperature on a shaker for 1 hour.
The plates were then washed with wash buffer (3×50 μl per well). Sulfo-tagged anti-TNF polyclonal antibody was then added to each well and the plates incubated for a further 1.5 hours at room temperature on a shaker.
The plates were then washed (3×50 μl wash buffer per well), followed by the addition of 50 μl MSD Read buffer T plus surfactant (diluted 1 in 2 in H2O) and read on a SECTOR Imager 6000.
For single point assays percentage inhibition was calculated using a control sample without compound.
For EC50s determination results were calculated by standard means using a 4 parameter logistic model (sigmoidal dose response model).

T1 sequence (P01375 77-233 limits assumed): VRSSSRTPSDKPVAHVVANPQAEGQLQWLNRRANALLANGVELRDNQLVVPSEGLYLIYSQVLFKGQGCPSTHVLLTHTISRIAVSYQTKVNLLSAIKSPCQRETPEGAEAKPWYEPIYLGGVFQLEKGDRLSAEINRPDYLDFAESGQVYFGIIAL
T2 sequence (P01375 77-233 limits assumed): as above

Kd (TNFα [1]; calculated from koff/kon, read-out: dissociation constant (KD)) | kon (TNFα [1]; immobilised TNFα, HBS-P with 5% DMSO) | koff (TNFα [1]; immobilised TNFα, HBS-P with 5% DMSO, read-out: dissociation rate constant (koff)) | IC50 (TNFα [3]) | % inhibition of TNFα binding to the TNF receptor [4] | SMILES | IC50 (TNFα [2])
7 nM | 5470 M⁻¹ s⁻¹ | 4.07e-05 s⁻¹ | 20 nM | – | O=C1CCCN1c1cccc(OCc2nc3ccc(-c4ccc(=O)[nH]c4)cc3n2Cc2ccccc2OC(F)F)c1 [Compound (3), 5-(1-[2-(Difluoromethoxy)benzyl]-2-{[3-(2-oxo-pyrrolidin-1-yl)phenoxy]methyl}-1H-benzimidazol-6-yl)-pyridin-2(1H)-one] | 21 nM
– | – | – | – | +80% | Cc1cc2occ(CN(C)CCN(C)Cc3cn(-c4cccc(C(F)(F)F)c4)c4ccccc34)c(=O)c2cc1C [SPD-304, reference compound] | –
